Experimental data from ChEMBL document CHEMBL2412976, “Structure optimization of 2-benzamidobenzoic acids as PqsD inhibitors for Pseudomonas aeruginosa infections and elucidation of binding mode by SPR, STD NMR, and molecular docking” (J Med Chem, 2013).
Where a chain is given by its changes, count along the chain named. The source made the active and inactive calls. The calls are words filed in the database; no cut-off is given here.

Assays:
[1] = tested on: Pseudomonas aeruginosa; experiment: Inhibition of Pseudomonas aeruginosa PqsD assessed as HHQ formation at 50 uM incubated 30 mins prior to substrate addition
[2] = Inhibition of Pseudomonas aeruginosa PqsD using ACoA/beta-ketodecanoic acid as substrate assessed as HHQ formation incubated for 10 mins prior to ACoA/beta-ketodecanoic acid addition measured for 40 mins
[3] = Inhibition of Pseudomonas aeruginosa PqsD using ACoA/beta-ketodecanoic acid as substrate assessed as HHQ formation incubated for 30 mins prior to ACoA addition followed by 10 mins after treated with beta-ketodecanoic acid measured for 40 mins
[4] = tested on: T1, 2-heptyl-4(1H)-quinolone synthase PqsD (Pseudomonas aeruginosa), A0A0C7ACN7 [S318F]; experiment: Binding affinity to Pseudomonas aeruginosa PqsD S317F mutant expressed in Escherichia coli BL21 (lambdaDE3) cells by surface plasmon resonance analysis
T1 sequence (whole entry): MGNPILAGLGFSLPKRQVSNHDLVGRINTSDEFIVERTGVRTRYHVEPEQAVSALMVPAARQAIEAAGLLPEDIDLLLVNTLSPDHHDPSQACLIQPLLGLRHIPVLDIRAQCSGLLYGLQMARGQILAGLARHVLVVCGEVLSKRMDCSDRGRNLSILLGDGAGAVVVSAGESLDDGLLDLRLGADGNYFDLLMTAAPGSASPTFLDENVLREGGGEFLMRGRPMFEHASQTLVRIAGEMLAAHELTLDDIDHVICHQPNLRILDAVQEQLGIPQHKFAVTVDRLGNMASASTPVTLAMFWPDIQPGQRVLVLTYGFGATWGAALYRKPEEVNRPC

[5] = tested on: Pseudomonas aeruginosa; experiment: Binding affinity to Pseudomonas aeruginosa wild-type PqsD expressed in Escherichia coli BL21 (lambdaDE3) cells by surface plasmon resonance analysis
[6] = tested on: T2, 2-heptyl-4(1H)-quinolone synthase PqsD (Pseudomonas aeruginosa), A0A0C7ACN7 [C113A]; experiment: Binding affinity to Pseudomonas aeruginosa PqsD C112A mutant expressed in Escherichia coli BL21 (lambdaDE3) cells by surface plasmon resonance analysis
T2 sequence (whole entry): T1 sequence (whole entry) with C113A, F318S

[7] = tested on: T3, 2-heptyl-4(1H)-quinolone synthase PqsD (Pseudomonas aeruginosa), A0A0C7ACN7 [H258F]; experiment: Binding affinity to Pseudomonas aeruginosa PqsD H257F mutant expressed in Escherichia coli BL21 (lambdaDE3) cells by surface plasmon resonance analysis
T3 sequence (whole entry): T1 sequence (whole entry) with H258F, F318S

[8] = tested on: Pseudomonas aeruginosa; experiment: Binding affinity to Pseudomonas aeruginosa wild-type PqsD by NMR spectroscopy analysis
[9] = tested on: Pseudomonas aeruginosa; experiment: Binding affinity to Pseudomonas aeruginosa PqsD at 20 uM by surface plasmon resonance analysis in presence of ACoA
[10] = tested on: Pseudomonas aeruginosa; experiment: Binding affinity to Pseudomonas aeruginosa PqsD at 20 uM by surface plasmon resonance analysis in absence of ACoA
[11] = tested on: Pseudomonas aeruginosa; experiment: Binding affinity to Pseudomonas aeruginosa PqsD at 100 uM by surface plasmon resonance analysis in presence of ACoA
[12] = Binding affinity to Pseudomonas aeruginosa wild-type PqsD by isothermal titration calorimetry
[13] = tested on: Pseudomonas aeruginosa; experiment: Binding affinity to Pseudomonas aeruginosa PqsD at 20 uM incubated prior to ACoA addition by surface plasmon resonance analysis in presence of ACoA

Question: With `O=C(Nc1ccccc1C(=O)O)c1cccc(S(=O)(=O)N2CCCC2)c1` as the compound, how does the inhibition [1] read?
Answer: 47%

Question: With `CCN(CC)S(=O)(=O)c1cccc(C(=O)Nc2ccc(-c3cccc(C(=O)O)c3)cc2C(=O)O)c1` as the compound, how does the IC50 [2] read?
Answer: 1.5 µM

Question: And the IC50 [3]?
Answer: 1.6 µM

Question: For `CCN(CC)C(=O)c1cccc(C(=O)Nc2ccccc2C(=O)O)c1`, which inhibition [1] is on record?
Answer: < 10%

Question: Which IC50 [2] does the source give for `CCN(CC)S(=O)(=O)c1cccc(C(=O)Nc2ccc(F)cc2C(=O)O)c1` here?
Answer: 11.4 µM

Question: Which IC50 [2] does the source give for `CCN(CC)S(=O)(=O)c1cccc(C(=O)Nc2ccc(C(F)(F)F)cc2C(=O)O)c1` here?
Answer: 12.4 µM

Question: With `CN(C)S(=O)(=O)c1cccc(C(=O)Nc2ccccc2C(=O)O)c1` as the compound, how does the inhibition [1] read?
Answer: 35%

Question: With `CCN(CC)S(=O)(=O)c1cccc(C(=O)Nc2ccc(-c3cccc(C(N)=O)c3)cc2C(=O)O)c1` as the compound, how does the IC50 [2] read?
Answer: 3.8 µM

Question: Which Activity [4] does the source give for `CCN(CC)S(=O)(=O)c1cc(C(=O)Nc2ccccc2C(=O)O)ccc1Br` here?
Answer: Active

Question: And the Activity [5]?
Answer: Active

Question: What about the Activity [6] of the same compound?
Answer: Active

Question: What about the Activity [7] of the same compound?
Answer: Active

Question: What about the IC50 [2] of the same compound?
Answer: 6.9 µM

Question: With `CCN(CC)S(=O)(=O)c1cccc(C(=O)Nc2cc(Cl)ccc2C(=O)O)c1` as the compound, how does the IC50 [2] read?
Answer: 9.4 µM

Question: Which IC50 [2] does the source give for `CCN(CC)C(=O)c1cccc(C(=O)Nc2ccc(Br)cc2C(=O)O)c1` here?
Answer: 25.5 µM

Question: What does the source list for `CCN(Cc1ccccc1)S(=O)(=O)c1cccc(C(=O)Nc2ccccc2C(=O)O)c1`?
Answer: Activity [8]: Active; IC50 [2]: 16.5 µM; IC50 [3]: 12.9 µM

Question: Which IC50 [2] does the source give for `CCN(CC)S(=O)(=O)c1cccc(C(=O)Nc2cccc(Cl)c2C(=O)O)c1` here?
Answer: 39 µM

Question: For `CCN(CC)S(=O)(=O)c1cccc(C(=O)Nc2ccc(C#N)cc2C(=O)O)c1`, which IC50 [2] is on record?
Answer: 26.2 µM

Question: Which IC50 [2] does the source give for `O=[N+]([O-])c1ccccc1C(O)c1ccccc1` (configuration not stated) here?
Answer: 3.2 µM

Question: For `CCN(CC)S(=O)(=O)c1cccc(C(=O)Nc2ccc(-c3ccc(C(N)=O)cc3)cc2C(=O)O)c1`, which IC50 [2] is on record?
Answer: 1.9 µM

Question: Which inhibition [1] does the source give for `O=C(Nc1ccccc1C(=O)O)c1cccc(S(=O)(=O)N2CCOCC2)c1` here?
Answer: 16%

Question: Which inhibition [1] does the source give for `CCN(CC)S(=O)(=O)c1cccc(C(=O)Nc2cccc(OC)c2C(=O)O)c1` here?
Answer: 44%

Question: With `CCN(CC)S(=O)(=O)c1cccc(C(=O)Nc2ccccc2C(=O)O)c1` as the compound, how does the inhibition [1] read?
Answer: 69%

Question: What about the Activity [8] of the same compound?
Answer: Active

Question: And the IC50 [2]?
Answer: 19.8 µM

Question: What about the IC50 [3] of the same compound?
Answer: 19.4 µM

Question: Which Activity [9] does the source give for `CCN(CC)S(=O)(=O)c1cccc(C(=O)Nc2ccc(Br)cc2C(=O)O)c1` here?
Answer: Active

Question: What about the Activity [10] of the same compound?
Answer: Active

Question: And the Activity [4]?
Answer: Active

Question: What about the Activity [5] of the same compound?
Answer: Active

Question: What about the Activity [6] of the same compound?
Answer: Active

Question: And the Activity [7]?
Answer: Active

Question: What about the IC50 [2] of the same compound?
Answer: 9.9 µM

Question: What about the IC50 [3] of the same compound?
Answer: 7 µM

Question: Which IC50 [2] does the source give for `CCN(CC)S(=O)(=O)c1cccc(C(=O)Nc2cc(F)ccc2C(=O)O)c1` here?
Answer: 8 µM

Question: With `CCN(CC)S(=O)(=O)c1cccc(C(=O)Nc2cccc(O)c2C(=O)O)c1` as the compound, how does the Activity [8] read?
Answer: Active

Question: And the IC50 [2]?
Answer: 1.2 µM

Question: What about the IC50 [3] of the same compound?
Answer: 1.1 µM

Question: For `CCN(CC)S(=O)(=O)c1cccc(C(=O)Nc2cccc(C(=O)O)c2)c1`, which inhibition [1] is on record?
Answer: 13%

Question: For `CCN(CC)S(=O)(=O)c1cccc(C(=O)Nc2ccc(-c3ccc(C(=O)O)cc3)cc2C(=O)O)c1`, which IC50 [2] is on record?
Answer: 2.7 µM

Question: What about the IC50 [3] of the same compound?
Answer: 2 µM

Question: Which IC50 [2] does the source give for `O=C(Nc1ccccc1C(=O)O)c1ccc(-c2ccccc2)c(Oc2ccccc2)c1` here?
Answer: 6.6 µM

Question: For `CCN(CC)S(=O)(=O)c1cccc(C(=O)Nc2ccccc2C(N)=O)c1`, which inhibition [1] is on record?
Answer: 21%

Question: Which IC50 [2] does the source give for `CCN(CC)S(=O)(=O)c1cc(C(=O)Nc2ccc(Br)cc2C(=O)O)ccc1Br` here?
Answer: 3.8 µM

Question: For `CCN(CC)S(=O)(=O)c1ccc(C(=O)Nc2ccc(Br)cc2C(=O)O)cc1`, which IC50 [2] is on record?
Answer: 13 µM

Question: For `O=C(Nc1ccccc1C(=O)O)c1cccc(S(=O)(=O)N2CCCCCC2)c1`, which IC50 [2] is on record?
Answer: 14.8 µM

Question: With `Cc1ccc(S(=O)(=O)c2cc(O)c3ccccc3c2O)cc1` as the compound, how does the Activity [11] read?
Answer: inactive

Question: What about the IC50 [2] of the same compound?
Answer: 0.15 µM

Question: What about the IC50 [3] of the same compound?
Answer: 1.1 µM

Question: For `NS(=O)(=O)c1cccc(C(=O)Nc2ccccc2C(=O)O)c1`, which IC50 [2] is on record?
Answer: 43.6 µM

Question: Which IC50 [2] does the source give for `CCN(CC)S(=O)(=O)c1cc(C(=O)Nc2ccc(F)cc2C(=O)O)ccc1Br` here?
Answer: 6.6 µM

Question: For `CCN(CC)S(=O)(=O)c1ccc(C(=O)Nc2ccccc2C(=O)O)cc1`, which inhibition [1] is on record?
Answer: 44%

Question: With `CCN(CC)S(=O)(=O)c1cccc(C(=O)Nc2ccc(C)cc2C(=O)O)c1` as the compound, how does the IC50 [2] read?
Answer: 18.4 µM

Question: For `CCCN(CCC)S(=O)(=O)c1cccc(C(=O)Nc2ccccc2C(=O)O)c1`, which IC50 [2] is on record?
Answer: 5.4 µM

Question: For `CCN(CC)S(=O)(=O)c1cccc(C(=O)Nc2ccc(-c3ccccc3)cc2C(=O)O)c1`, which Kd [12] is on record?
Answer: 5.2 µM

Question: What about the Activity [9] of the same compound?
Answer: Active

Question: And the Activity [10]?
Answer: Active

Question: What about the Activity [4] of the same compound?
Answer: Active

Question: And the Activity [5]?
Answer: Active

Question: And the Activity [6]?
Answer: Active

Question: What about the Activity [7] of the same compound?
Answer: Active

Question: And the IC50 [2]?
Answer: 3 µM

Question: And the IC50 [3]?
Answer: 4.2 µM

Question: What about the Activity [13] of the same compound?
Answer: Active

Question: For `CCN(CC)S(=O)(=O)c1cc(C(=O)Nc2ccccc2C(=O)O)ccc1C`, which IC50 [2] is on record?
Answer: 27.3 µM

Question: With `CCc1ccc(C(=O)Nc2ccccc2C(=O)O)cc1S(=O)(=O)N(CC)CC` as the compound, how does the inhibition [1] read?
Answer: 39%

Question: With `O=C(Nc1ccccc1C(=O)O)c1cccc(S(=O)(=O)N2CCCCC2)c1` as the compound, how does the IC50 [2] read?
Answer: 14.4 µM

Question: With `CCN(CC)S(=O)(=O)c1cccc(C(=O)Nc2cc([N+](=O)[O-])ccc2C(=O)O)c1` as the compound, how does the IC50 [2] read?
Answer: 6.3 µM

Question: With `CCN(CC)S(=O)(=O)c1cccc(C(=O)Nc2ccc([N+](=O)[O-])cc2C(=O)O)c1` as the compound, how does the IC50 [2] read?
Answer: 8.9 µM

Question: With `CCN(CC)S(=O)(=O)c1cccc(C(=O)Nc2cccc(F)c2C(=O)O)c1` as the compound, how does the IC50 [2] read?
Answer: 24.9 µM
